# Experiments:
# phosphorylated c-MET = target: T1, phosphorylated c-MET (Homo sapiens, UniProt P08581); test: c-MET cell mechanistic assay (phosphorylated c-MET in MKN45 cells); assay type: cell-based; settings: MKN45 cell line, four hours incubation, phosphorylated c-MET levels, at least duplicate experiments; read-out: Met mech IC50
# T1 construct: endogenous in cells; host or cells: MKN45
# Protocol: The cellular activity of the compounds of the present invention may be determined by the following procedure. MKN45 cells were plated in Falcon 3072 96-well plates in growth media (RPMI, 10% FBS, 1% L-glutamine) at a density of 5000 cells/well and incubated at 37° C., 5% CO2 overnight. The following day, one-tenth volume of a 10× concentration of compounds was added to the wells in a 6-point dilution series. The dilutions series was composed of an initial 1:5 dilution in DMSO, followed by a 1:10 dilution in growth media, for a final DMSO concentration on cells of 0.5%. Control wells were treated with 0.5% DMSO. The typical range of dilution was 10 μM to 3 nM. Once compound was added to the cells, plates were incubated for four hours at 37° C., 5% CO2. Plates were then washed in PBS, and lysed in triton-based lysis buffer. Lysates were transferred to a precoated capture plate made by Biosource (Cat # KH00281). The phosphorylated c-MET levels were measured by incubating with a rabbit polyclonal antibody against phosphorylated c-MET ([pYpYpY1230/1234/1235]) followed by an anti-rabbit antibody conjugated to HRP. Signal was measured on a Wallac Victor plate reader at 450 nm. The DMSO signal of the control wells was defined as 100% and the percent of inhibition of phosphorylated c-Met was expressed as percent of control. IC50 values were determined from the percent of control data using a standard four-parameter model.
# (§1) The IC50 values of exemplary compounds of the present invention determined in a c-MET cell mechanistic assay using the MKN45 cell line according to the procedures described herein in at least duplicate experiments are abbreviated as follows and are shown in Table 3: A, IC50≦0.1 μM; B, 0.1 μM<IC50≦1 μM; C, 1 μM<IC50≦10 μM; D, IC50>10 μM; ND, not determined. The Example # of Table 3 corresponds to the compound example number as illustrated in the Examples section.
# MKN45 cells = test: MKN45 cell proliferation assay (CellTiter-Glo); assay type: cell-based; settings: Homo sapiens, MKN-45, 72 h, MKN45 cell line, 3 days incubation, at least duplicate experiments, read-out: Prolif. IC50
# Protocol: The effect of inhibitors on the proliferation of MKN45 cells was determined using the following protocol. MKN45 cells were plated in Corning 3917 96-well white tissue culture treated plates in growth medium (RPMI, 10% FCS) at a density of 5000 cells/well in a total volume of 135 μL and incubated at 37° C., 5% CO2, 95% humidity overnight. The following day, one-tenth volume of a 10× concentration of compounds was added to the wells in an 8-point dilution series. The dilution series was composed of an initial 1:5 dilution of a 10 mM stock of compound in DMSO, followed by serial 1:4 dilutions in DMSO, then a 1:20 dilution in growth medium prior to the 1:10 dilution into the cell plate. Final DMSO concentration on the cells was 0.1%, there were control wells treated with both 0.1% DMSO and no DMSO. The typical dilution range is 10 μM to 0.6 nM. Once the compound was added to the cells, plates were incubated for 3 days at 37° C., 5% CO2 at 95% humidity. On the third day, after allowing all cells and reagents to come to room temperature, 25 μL of CellTiter-Glo reagent (Promega # G7573) was added to the wells. Plates were shaken on a platform for 10 minutes prior to reading luminescence for 0.1 seconds. The signal of the control wells was taken as 100% growth and growth inhibition was expressed as percent of control. IC50 values were determined from the percent of control data using a standard four-parameter model.
# as §1, with “a” for “a c-MET”, “proliferation” for “mechanistic”, “2:” for “3:”, “2” for “3”
# T1 sequence (P08581 25-1390): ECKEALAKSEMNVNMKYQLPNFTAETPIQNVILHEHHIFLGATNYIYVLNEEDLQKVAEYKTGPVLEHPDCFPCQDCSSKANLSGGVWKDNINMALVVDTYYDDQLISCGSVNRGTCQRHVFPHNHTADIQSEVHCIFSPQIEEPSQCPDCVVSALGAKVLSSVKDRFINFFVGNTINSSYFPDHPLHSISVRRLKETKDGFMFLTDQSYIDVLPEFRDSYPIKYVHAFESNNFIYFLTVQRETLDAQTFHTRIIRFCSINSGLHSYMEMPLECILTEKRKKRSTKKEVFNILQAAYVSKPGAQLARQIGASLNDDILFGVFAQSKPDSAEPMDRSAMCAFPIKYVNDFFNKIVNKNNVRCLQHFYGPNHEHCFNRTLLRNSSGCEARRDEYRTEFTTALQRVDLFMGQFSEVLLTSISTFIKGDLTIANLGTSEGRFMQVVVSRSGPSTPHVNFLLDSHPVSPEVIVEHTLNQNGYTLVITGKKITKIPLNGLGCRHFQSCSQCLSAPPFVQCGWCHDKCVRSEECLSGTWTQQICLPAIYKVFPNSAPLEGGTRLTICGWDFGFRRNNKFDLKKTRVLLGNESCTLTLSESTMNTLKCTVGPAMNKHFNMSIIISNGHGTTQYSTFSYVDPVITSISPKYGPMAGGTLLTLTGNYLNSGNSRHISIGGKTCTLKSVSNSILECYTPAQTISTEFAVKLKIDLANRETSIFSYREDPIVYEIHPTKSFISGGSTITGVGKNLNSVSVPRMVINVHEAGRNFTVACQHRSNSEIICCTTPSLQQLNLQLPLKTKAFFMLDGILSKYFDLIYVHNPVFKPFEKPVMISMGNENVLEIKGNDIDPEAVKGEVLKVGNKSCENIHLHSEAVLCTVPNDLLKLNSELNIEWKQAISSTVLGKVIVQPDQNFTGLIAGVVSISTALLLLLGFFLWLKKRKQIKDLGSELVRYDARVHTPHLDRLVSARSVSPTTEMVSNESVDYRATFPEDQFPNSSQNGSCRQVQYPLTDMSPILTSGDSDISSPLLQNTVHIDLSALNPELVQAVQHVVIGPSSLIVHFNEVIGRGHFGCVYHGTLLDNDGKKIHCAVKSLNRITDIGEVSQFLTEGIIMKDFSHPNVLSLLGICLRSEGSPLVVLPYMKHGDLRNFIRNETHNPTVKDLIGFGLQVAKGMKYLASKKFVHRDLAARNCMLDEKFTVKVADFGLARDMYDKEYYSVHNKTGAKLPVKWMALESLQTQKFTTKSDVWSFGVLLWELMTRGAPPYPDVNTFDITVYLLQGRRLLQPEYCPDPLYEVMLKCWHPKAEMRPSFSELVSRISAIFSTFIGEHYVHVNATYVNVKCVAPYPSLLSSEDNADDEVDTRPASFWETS
SMILES,IC50 (phosphorylated c-MET) [nM],IC50 (MKN45 cells) [nM]
"CC(=O)N1CC=C(c2cnc3[nH]cc(C(C)c4c(Cl)ccc(F)c4Cl)c3c2)CC1 (stereo not drawn) [Example 39, 1-(4-{3-[1-(2,6-Dichloro-3-fluorophenyl)ethyl]-1H-pyrrolo[2,3-b]pyridin-5-yl}-3,6-dihydro-2H-pyridin-1-yl)-ethanone]",100 to 1000,100 to 1000
"CC(c1c(Cl)ccc(F)c1Cl)c1c[nH]c2ncc(C3=CCN(C(=O)[C@@H](C)O)CC3)cc12 (stereo partly drawn) [Example 40, (R)-1-(4-{3-[1-(2,6-Dichloro-3-fluorophenyl)ethyl]-1H-pyrrolo[2,3-b]-pyridin-5-yl}-3,6-dihydro-2H-pyridin-1-yl)-2-hydroxypropan-1-one]",≤ 100,100 to 1000
"CC(c1c(Cl)ccc(F)c1Cl)c1c[nH]c2ncc(C3=CCN(C(=O)[C@H](C)O)CC3)cc12 (stereo partly drawn) [Example 41, (S)-1-(4-{3-[1-(2,6-Dichloro-3-fluorophenyl)ethyl]-1H-pyrrolo[2,3-b]-pyridin-5-yl}-3,6-dihydro-2H-pyridin-1-yl)-2-hydroxypropan-1-one]",≤ 100,100 to 1000
"CC(c1c(Cl)ccc(F)c1Cl)c1c[nH]c2ncc(C3=CCN(C(=O)C(C)(C)O)CC3)cc12 (stereo not drawn) [Example 42, 1-(4-{3-[1-(2,6-Dichloro-3-fluorophenyl)ethyl]-1H-pyrrolo[2,3-b]pyridin-5-yl}-3,6-dihydro-2H-pyridin-1-yl)-2-hydroxy-2-methylpropan-1-one]",100 to 1000,100 to 1000
"CC(c1c(Cl)ccc(F)c1Cl)c1c[nH]c2ncc(C3=CCN(C(=O)CO)CC3)cc12 (stereo not drawn) [Example 43, 1-(4-{3-[1-(2,6-Dichloro-3-fluorophenyl)ethyl]-1H-pyrrolo[2,3-b]pyridin-5-yl}-3,6-dihydro-2H-pyridin-1-yl)-2-hydroxyethanone]",≤ 100,≤ 100
"CC(c1c(Cl)ccc(F)c1Cl)c1c[nH]c2ncc(C3=CCN(C(=O)C(C)(C)N)CC3)cc12 (stereo not drawn) [Example 45, 2-Amino-1-(4-{3-[1-(2,6-dichloro-3-fluorophenyl)ethyl]-1H-pyrrolo[2,3-b]pyridin-5-yl}-3,6-dihydro-2H-pyridin-1-yl)-2-methylpropan-1-one]",≤ 100,≤ 100
"CC(c1c(Cl)ccc(F)c1Cl)c1c[nH]c2ncc(C3=CCN(S(N)(=O)=O)CC3)cc12 (stereo not drawn) [Example 46, 4-{3-[1-(2,6-Dichloro-3-fluorophenyl)ethyl]-1H-pyrrolo[2,3-b]pyridin-5-yl}-3,6-dihydro-2H-pyridine-1-sulfonic acid amide]",100 to 1000,100 to 1000
"CC(c1c(Cl)ccc(F)c1Cl)c1c[nH]c2ncc(-c3cnn(C4CCN(C=O)CC4)c3)cc12 (stereo not drawn) [Example 47, 4-(4-{3-[1-(2,6-Dichloro-3-fluorophenyl)ethyl]-1H-pyrrolo[2,3-b]pyridin-5-yl}-pyrazol-1-yl)-piperidine-1-carbaldehyde]",≤ 100,≤ 100
"CC(=O)N1CCC(n2cc(-c3cnc4[nH]cc(C(C)c5c(Cl)ccc(F)c5Cl)c4c3)cn2)CC1 (stereo not drawn) [Example 48, 1-[4-(4-{3-[1-(2,6-Dichloro-3-fluorophenyl)ethyl]-1H-pyrrolo[2,3-b]pyridin-5-yl]-pyrazol-1-yl}-piperidin-1-yl)-ethanone]",≤ 100,≤ 100
"CC(c1c(Cl)ccc(F)c1Cl)c1c[nH]c2ncc(-c3cnn(C4CCN(C(N)=O)CC4)c3)cc12 (stereo not drawn) [Example 49, 4-(4-{3-[1-(2,6-Dichloro-3-fluorophenyl)ethyl]-1H-pyrrolo[2,3-b]pyridin-5-yl}-pyrazol-1-yl)-piperidine-1-carboxamide]",100 to 1000,≤ 100
"CC(c1c(Cl)ccc(F)c1Cl)c1c[nH]c2ncc(-c3cnn(C4CCN(S(C)(=O)=O)CC4)c3)cc12 (stereo not drawn) [Example 50, 3-[1-(2,6-Dichloro-3-fluorophenyl)-ethyl]-5-[1-(1-methanesulfonyl-piperidin-4-yl)-1H-pyrazol-4-yl]-1H-pyrrolo[2,3-b]pyridine]",≤ 100,100 to 1000
"CNC(=O)N1CCC(n2cc(-c3cnc4[nH]cc(C(C)c5c(Cl)ccc(F)c5Cl)c4c3)cn2)CC1 (stereo not drawn) [Example 51, 4-(4-{3-[1-(2,6-Dichloro-3-fluorophenyl)ethyl]-1H-pyrrolo[2,3-b]pyridin-5-yl}-pyrazol-1-yl)-piperidine-1-carboxylic acid methylamide]",≤ 100,≤ 100
"CC(c1c(Cl)ccc(F)c1Cl)c1c[nH]c2ncc(-c3cnn(C4CNC4)c3)cc12 (stereo not drawn) [Example 53, 5-(1-Azetidin-3-yl-1H-pyrazol-4-yl)-3-[1-(2,6-dichloro-3-fluoro-phenyl)ethyl]-1H-pyrrolo[2,3-b]pyridine]",≤ 100,100 to 1000
"CC(c1c(Cl)ccc(F)c1Cl)c1c[nH]c2ncc(-c3cnn(C4CN(C=O)C4)c3)cc12 (stereo not drawn) [Example 55, 3-(4-{3-[1-(2,6-Dichloro-3-fluorophenyl)ethyl]-1H-pyrrolo[2,3-b]pyridin-5-yl}-pyrazol-1-yl)-azetidine-1-carbaldehyde]",≤ 100,≤ 100
"CC(c1c(Cl)ccc(F)c1Cl)c1c[nH]c2ncc(-c3cnn(C4CN(C(N)=O)C4)c3)cc12 (stereo not drawn) [Example 56, 3-(4-{3-[1-(2,6-Dichloro-3-fluorophenyl)ethyl]-1H-pyrrolo[2,3-b]pyridin-5-yl}-pyrazol-1-yl)-azetidine-1-carboxamide]",≤ 100,100 to 1000
"CC(c1c(Cl)ccc(F)c1Cl)c1c[nH]c2ncc(-c3cnn(C4CN(S(C)(=O)=O)C4)c3)cc12 (stereo not drawn) [Example 57, 3-[1-(2,6-Dichloro-3-fluorophenyl)-ethyl]-5-[1-(1-methanesulfonylazetidin-3-yl)-1H-pyrazol-4-yl]-1H-pyrrolo[2,3-b]pyridine]",≤ 100,100 to 1000
"CC(=O)N1CC(n2cc(-c3cnc4[nH]cc(C(C)c5c(Cl)ccc(F)c5Cl)c4c3)cn2)C1 (stereo not drawn) [Example 58, 1-[3-(4-{3-[1-(2,6-Dichloro-3-fluorophenyl)-ethyl]-1H-pyrrolo[2,3-b]pyridin-5-yl}-pyrazol-1-yl)-azetidin-1-yl]-ethanone]",≤ 100,100 to 1000
"CC(c1c(Cl)ccc(F)c1Cl)c1c[nH]c2ncc(-c3cnn(C4CN(C(=O)N(C)C)C4)c3)cc12 (stereo not drawn) [Example 59, 3-(4-{3-[1-(2,6-Dichloro-3-fluorophenyl)ethyl]-1H-pyrrolo[2,3-b]pyridin-5-yl}-pyrazol-1-yl)-azetidine-1-carboxylic acid dimethylamide]",100 to 1000,100 to 1000
"CC(c1c(Cl)ccc(F)c1Cl)c1c[nH]c2ncc(-c3cnn(C(C)(C)C(=O)O)c3)cc12 (stereo not drawn) [Example 61, 2-(4-{3-[1-(2,6-Dichloro-3-fluorophenyl)ethyl]-1H-pyrrolo[2,3-b]pyridin-5-yl}-pyrazol-1-yl)-2-methylpropionic acid]",1000 to 10000,1000 to 10000
"CNC(=O)C(C)(C)n1cc(-c2cnc3[nH]cc(C(C)c4c(Cl)ccc(F)c4Cl)c3c2)cn1 (stereo not drawn) [Example 62, 2-(4-{3-[1-(2,6-Dichloro-3-fluorophenyl)ethyl]-1H-pyrrolo[2,3-b]pyridin-5-yl}-pyrazol-1-yl)-N-methylisobutyramide]",≤ 100,100 to 1000
"CC(c1c(Cl)ccc(F)c1Cl)c1c[nH]c2ncc(-c3cnn(C(C)(C)C(=O)N(C)C)c3)cc12 (stereo not drawn) [Example 63, 2-(4-{3-[1-(2,6-Dichloro-3-fluorophenyl)ethyl]-1H-pyrrolo[2,3-b]pyridin-5-yl}-pyrazol-1-yl)-N,N-dimethylisobutyramide]",≤ 100,100 to 1000
